Laboratory results published in PubChem BioAssay (NCI).
Where “and” joins values, the source holds several entries; their conditions need not be identical. Equal values may be shown once.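 Following 48 hours of exposure in 96-well plates, responses at five concentrations were used to interpolate endpoints linearly. The concentration for 50% growth inhibition is given as GI50. TGI marks complete inhibition of growth.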

Experiments:
Test in all cases: NCI-60 cell line screen, 48 h
CCRF-CEM leukemia = test system: CCRF-CEM leukemia
HCC-2998 colon = test system: HCC-2998 colon
HOP-62 NSCLC = test system: HOP-62 NSCLC
NCI-H522 lung = test system: NCI-H522 lung
PC-3 prostate = test system: PC-3 prostate
SF-268 CNS = test system: SF-268 CNS
SK-MEL-28 melanoma = test system: SK-MEL-28 melanoma
TK-10 renal = test system: TK-10 renal
U251 CNS = test system: U251 CNS
UACC-62 melanoma = test system: UACC-62 melanoma

SMILES	GI50 (CCRF-CEM leukemia)	TGI (CCRF-CEM leukemia)	GI50 (HCC-2998 colon)	TGI (HCC-2998 colon)	GI50 (HOP-62 NSCLC)	TGI (HOP-62 NSCLC)	GI50 (NCI-H522 lung)	TGI (NCI-H522 lung)	GI50 (PC-3 prostate)	TGI (PC-3 prostate)	GI50 (SF-268 CNS)	TGI (SF-268 CNS)	GI50 (SK-MEL-28 melanoma)	TGI (SK-MEL-28 melanoma)	GI50 (TK-10 renal)	TGI (TK-10 renal)	GI50 (U251 CNS)	TGI (U251 CNS)	GI50 (UACC-62 melanoma)	TGI (UACC-62 melanoma)
O=C(CCCCN1CCN(CCCCC(=O)Nc2ccccc2C#C/C=C\C#Cc2ccccc2C(F)(F)F)CC1)Nc1ccccc1C#C/C=C\C#Cc1ccccc1C(F)(F)F	6.02 µM	17 µM	9.14 µM	17.5 µM	12.2 µM	32 µM	9.19 µM	20.4 µM	13.9 µM	> 50 µM	12.3 µM	32.9 µM	9.76 µM	18.4 µM	16.6 µM	36 µM	9.01 µM	18.9 µM	11 µM	22.8 µM
OCC1OC(OC2(CO)OC(CO)C(O)C2O)C(O)C(O)C1O (configuration not stated)	> 100 µM	> 100 µM	> 100 µM	> 100 µM	> 100 µM	> 100 µM	> 100 µM	> 100 µM	> 100 µM	> 100 µM	> 100 µM	> 100 µM	> 100 µM	> 100 µM	> 100 µM	> 100 µM	> 100 µM	> 100 µM	> 100 µM	> 100 µM
O=C(CI)NC(=O)NC(=O)NCc1ccccc1	0.51 µM	2.14 µM	10.4 µM	22.9 µM	18.5 µM	42 µM	1.62 µM	3.52 µM	15.1 µM	30.7 µM	4.4 µM	21.6 µM	2.96 µM	11.3 µM	1.86 µM	4.12 µM	13.6 µM	27.1 µM	3.82 µM	14.6 µM
CCOC(=O)c1cc(C(=O)c2ccc(OC)c(OC)c2)n2c1ccc1ccc3cccnc3c12	3.13 µM	> 100 µM	4.08 µM	> 100 µM	3.78 µM	81.6 µM	0.611 µM	> 100 µM	0.96 µM	> 100 µM	4.62 µM	> 100 µM	3.7 µM	> 100 µM	7.2 µM	> 100 µM	3.61 µM	26.9 µM	0.918 µM	> 100 µM
O=C(O)c1ccccc1NCn1nc(-c2ccccc2O)oc1=S	10.6 µM	36.4 µM	33.7 µM	86.7 µM	39 µM	> 100 µM	> 100 µM	> 100 µM	43.6 µM	> 100 µM	80.9 µM	> 100 µM	> 100 µM	> 100 µM	> 100 µM	> 100 µM	48.3 µM	> 100 µM	33.7 µM	92.3 µM
Cn1cc(-c2ccc3ncc(-c4ccc(CC(=O)Nc5cc(C(C)(C)C)nn5C)cc4)cc3c2)cn1	0.81 µM	16.6 µM	2.73 µM	> 20 µM	3.96 µM	> 20 µM	0.995 µM	9.06 µM	0.961 µM	> 20 µM	1.45 µM	> 20 µM	3.57 µM	> 20 µM	1.52 µM	> 20 µM	2.11 µM	> 20 µM	1.26 µM	6.65 µM
O=C(Nc1ccc(-n2cc(-c3ccncc3)c(-c3ccc(Cl)c(O)c3)n2)cc1)c1cc(C(F)(F)F)cc(C(F)(F)F)c1	4.87 µM	> 100 µM	> 100 µM	> 100 µM	2.11 µM	5.58 µM	14 µM	57.7 µM	3.29 µM	28.5 µM	7.39 µM	51.6 µM	4.88 µM	20 µM	7.55 µM	23 µM	4.91 µM	22 µM	14.4 µM	> 100 µM
CCOC(=O)[C@@H](C)C[C@H](Cc1ccccc1)NC(=O)c1csc([C@@H](C[C@H](C(C)C)N(C)C(=O)CNC(=O)[C@H]2CCCCN2C)OC(C)=O)n1	1.08 µM	> 14.3 µM	0.795 µM	> 14.3 µM	1.87 µM	> 14.3 µM	0.463 µM	> 3.79 µM	0.508 µM	> 14.3 µM	4.89 µM	> 14.3 µM	1.52 µM	> 14.3 µM	> 7.9 µM	> 14.3 µM	1 µM	> 14.3 µM	0.514 µM	> 14.3 µM
CCCC(O)[C@@]1(CC)CC(C)C(O)(C2(C)C[C@H](C)[C@@H](C(CC)C(=O)C(C)[C@@H](O)[C@H](C)C3OC(O)(C(CC)C(=O)O)[C@@H](C)C(O)C3CC)O2)O1 (some centres not stated)		7.36 µM		1.49 µM		2.3 µM		0.537 µM		1.76 µM		2.21 µM		1.69 µM		6.74 µM		1.82 µM		2.86 µM
O=C1Nc2ccc(-c3cccnc3)cc2/C1=C/c1cc(Br)c(O)c(Br)c1	5.43 µM	> 25 µM	8.58 µM	> 25 µM	8.43 µM	> 25 µM	4.38 µM	13.7 µM	9.05 µM	> 25 µM	7.71 µM	> 25 µM	4.89 µM	14.6 µM	7.82 µM	24.3 µM	6.11 µM	> 25 µM	3.54 µM	9.87 µM
COc1ccc([C@@]23Oc4cc(OC)cc(OC)c4[C@]2(O)[C@H](O)[C@H](C(=O)N(C)C)[C@H]3c2ccccc2)cc1	0.0185 µM			0.0615 µM and 0.224 µM	0.0152 µM		0.0179 µM		0.0173 µM		0.0152 µM		0.0134 µM	0.0616 µM and 0.0292 µM and 0.0492 µM	0.0484 µM	0.0531 µM and 0.15 µM and 0.435 µM	0.0157 µM		0.0243 µM	
